Data as given in ChEMBL document CHEMBL1126403, “Azaheteroaromatic ethers as carbonyl bioisosteres. Synthesis and evaluation of a novel class of 5-HT3 receptor antagonists” (Bioorg Med Chem Lett, 1992).

Experiments:
Rattus norvegicus = experiment: Compound was evaluated in vivo for its potency to antagonise serotonin 5-HT-inducedbradycardia in the anesthetized rat; assay type: functional
[1] = target: T1, Serotonin 3 (5-HT3) receptor (Rattus norvegicus, UniProt P35563+Q9JJ16); experiment: Binding affinity was evaluated in vitro by displacement of [3H]zacopride radioligand from 5-hydroxytryptamine 3 receptor; assay type: protein-complex assay
T1 sequence (P35563 whole entry): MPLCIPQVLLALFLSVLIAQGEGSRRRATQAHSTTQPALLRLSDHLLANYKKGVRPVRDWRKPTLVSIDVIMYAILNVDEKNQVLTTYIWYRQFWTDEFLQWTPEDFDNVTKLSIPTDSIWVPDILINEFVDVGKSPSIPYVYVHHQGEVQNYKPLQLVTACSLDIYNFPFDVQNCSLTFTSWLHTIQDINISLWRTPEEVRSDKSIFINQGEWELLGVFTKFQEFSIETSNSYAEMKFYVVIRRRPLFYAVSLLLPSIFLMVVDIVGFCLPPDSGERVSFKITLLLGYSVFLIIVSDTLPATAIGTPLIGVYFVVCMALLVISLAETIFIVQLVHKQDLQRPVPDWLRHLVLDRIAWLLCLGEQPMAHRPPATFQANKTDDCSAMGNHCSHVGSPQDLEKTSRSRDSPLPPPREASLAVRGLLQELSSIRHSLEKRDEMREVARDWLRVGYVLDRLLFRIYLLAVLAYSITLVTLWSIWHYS
T1 sequence (Q9JJ16 whole entry): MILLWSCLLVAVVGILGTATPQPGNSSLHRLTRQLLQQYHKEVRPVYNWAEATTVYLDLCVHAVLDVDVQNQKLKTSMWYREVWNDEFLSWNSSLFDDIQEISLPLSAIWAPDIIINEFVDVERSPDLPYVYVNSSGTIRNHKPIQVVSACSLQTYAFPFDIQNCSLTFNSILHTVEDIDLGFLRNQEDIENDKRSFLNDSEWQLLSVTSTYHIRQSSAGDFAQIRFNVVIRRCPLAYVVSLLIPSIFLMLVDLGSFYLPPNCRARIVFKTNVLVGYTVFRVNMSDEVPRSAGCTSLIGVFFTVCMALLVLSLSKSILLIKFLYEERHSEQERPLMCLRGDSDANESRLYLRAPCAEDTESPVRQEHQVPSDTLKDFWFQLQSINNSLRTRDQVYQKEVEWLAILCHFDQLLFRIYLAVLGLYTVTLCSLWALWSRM

Row | Structure (SMILES) | Dose (Rattus norvegicus) [mg/kg] | IC50 [1] [µM]
1 | c1ccc2nc(OC3CN4CCC3CC4)ccc2c1 (stereo not drawn) | 3 | 0.048
2 | CN1C2CCC1CC(Oc1nc3ccccc3s1)C2 (stereo not drawn) | 0.1 | 0.0069
3 | CN1C2CCC1CC(Oc1ccc3ccccc3n1)C2 (stereo not drawn) | 10 | 0.0396
4 | CN1[C@@H]2CC[C@H]1C[C@@H](OC(=O)c1cc(Cl)cc(Cl)c1)C2 [BEMESETRON] | 0.1 | 0.0426
5 | Cc1nccn1CC1CCc2c(c3ccccc3n2C)C1=O (stereo not drawn) [ONDANSETRON] | 0.01 | 
6 | CN1[C@@H]2CC[C@H]1C[C@@H](OC(=O)c1c[nH]c3ccccc13)C2 [TROPISETRON] | 0.01 | 0.0023
7 | COc1cc(N)c(Cl)cc1C(=O)NC1CN2CCC1CC2 (stereo not drawn) [ZACOPRIDE] | 0.01 | 0.0022
